Measurements: article PMC7357032, “Antiparasitic Constituents of Beilschmiedia louisii and Beilschmiedia obscura and Some Semisynthetic Derivatives (Lauraceae)” (Molecules, 2020)
Like-named read-outs stand apart in the source and are kept apart here.

What was measured:
[1] = system: Trypanosoma brucei brucei; experiment: In vitro antitrypanosomal assay (resazurin viability); details: for IC50: Trypanosoma brucei; for antitrypanosomal activity against Tb brucei (in words): in vitro
[2] = Cytotoxicity assay (resazurin); format: cell-based; details: human, compounds and combinations, HeLa cells, read-out: % Cell Viability ± sd Cytotoxicity
Procedure: Human cervix adenocarcinoma cells (HeLa cells) were used to check the toxicity of the crude extract and compounds and their combinations as described by Keusch et al. (1972). Stocks solutions were prepared in DMSO at a concentration of 50 μg/mL for the extracts and 20 μM for compounds, and combinations. To assess the overt cytotoxicity, samples were placed in 96-well plates containing cells for 48 h. The numbers of cells surviving drug treatment were determined using the resazurin based reagent and reading resorufin fluorescence in a Spectramax M3 microplate reader. Results were expressed as % viability-the resorufin fluorescence in compound-treated wells relative to untreated controls. Compounds were tested in duplicate and standard deviations (SD) derived. […] (which induces cell apoptosis) was used as the positive control.

[3] = system: Plasmodium falciparum strain Pf3D7; experiment: In vitro antiplasmodial assay (pLDH assay); details: read-out: IC50 Pf3D7
[4] = read-out: IC50 Tb brucei, compounds, values given in µg/mL in the text

Structure (SMILES) | viability at 48 h, 20 µM (stock) [2] [%] | further results
N=C(N)c1ccc(OCCCCCOc2ccc(C(=N)N)cc2)cc1 [Pentamidine, reference compound] | – | IC50 [1, 4]: ~0.01 µg/mL
CCCCCCCCC1C2C=CC3C(COC(=O)c4cc(OC)c(OC)c(OC)c4)C=CC4CC1C2C43 (stereo not drawn) [Compound 11d, beilschmiegallate] | 100 ± 3.4 | –
CCCC/C=C\CCCCc1ccccc1 [Compound 3, (5Z) 1-phenyldec-5-ene] | 50.3 ± 8.9 | –
CCN(CC)CCCC(C)Nc1ccnc2cc(Cl)ccc12 (stereo not drawn) [Chloroquine] | – | IC50 [3]: 0.034 µM
CCCCCCCC[C@@H]1[C@H]2C=C[C@H]3C(/C=N/NC(N)=S)=CC[C@@H]4C[C@@H]1[C@@H]2[C@H]43 [Compound 11c, beilschmiecarbazone] | 100 ± 2.8 | –
O=C(O)CCCCCCCCCCCCCCc1ccccc1 [Compound 5, 15-phenylpentadecanoic acid] | 76.6 ± 4.1 | –
CCCCCCCCC1C2C=CC3C(C(=O)O)C=CC4CC1C2C43 (stereo not drawn) [Compound 11, beilschmiedic acid E] | 100 ± 5.8 | antitrypanosomal activity against Tb brucei (in words) [1]: inactive
CC[C@H](CC[C@@H](C)[C@H]1CC[C@H]2[C@@H]3CC=C4C[C@@H](O)CC[C@]4(C)[C@H]3CC[C@]12C)C(C)C [Compound 13, β-sitosterol] | – | IC50 ([1]; 48 h, read-out: IC50 Tb Brucei, isolated compounds, mixtures and drug standard, dose-response, for 6 + 7 IC50 maximum calculated with the constituent of lowest molecular mass): 9.5 µM
CCCCCCCCC1C2C=CC3C(CO)C=CC4CC1C2C43 (stereo not drawn) [Compound 11a, beilschmiedol A] | 52.6 ± 1.8 | antitrypanosomal activity against Tb brucei (in words) [1]: moderate activity
O=C(O)C[C@@H]1[C@H]2C=C[C@H]3C(c4ccc5c(c4)OCO5)=CC[C@@H]4C[C@@H]1[C@@H]2[C@H]43 [Compound 12, methylenedioxyendiandric acid A] | 100 ± 10.8 | –
CCCCCCCC[C@@H]1[C@H]2C=C[C@H]3C(C=O)=CC[C@@H]4C[C@@H]1[C@@H]2[C@H]43 [Compound 11b, beilschmiedal] | 79.6 ± 17.1 | IC50 [3]: 31.4 µM; IC50 [1, 4]: 8.3 µg/mL
